We go through 1 compound from patent US20230091810A1, “FIRST-IN-CLASS OF SHMT2 AND MTHFD2 INHIBITORS AS ANTITUMOR AGENTS” (Duquesne University of the Holy Spirit, priority 2017, published 2023).

Molecules are shown by their SMILES.

For this experiment, the system named is R2 (null) (CHO). The experiment in a line: proliferation assay, R2 transporter-null CHO cells. The format is cell-based, Chinese hamster. Particulars: Cricetulus griseus, folate-/glycine-free RPMI1640 with 25 nM leucovorin, 96 h, drug 0-1000 nM, read-out: IC50s (SE) R2 (null) (CHO). On the procedure: Proliferation assays were performed with engineered Chinese hamster ovary (CHO) cell lines R2 (transporter-null), PC43-10 (expresses RFC only), RT16 (FRα only), and R2/PCFT4 (PCFT only) cultured in folate-/glycine-free RPMI1640 supplemented with 25 nM leucovorin. Additional results are shown for HCT116 (colon tumor cells (CTC)), IGROV1 (epithelial ovarian cancer (EOC) cells), H460 (non-small cell lung cancer (NSCLC) cells), MIAPaCa-2 (pancreatic cancer (PaC) cells), and HPAC (PaC).
Cell culture and proliferation/protection assays. […]
For proliferation assays with the CHO cell lines, the cells were treated with drugs (0-1 µM) in a 96-well plate (2000 cells/well) in glycine-free, nucleoside-free folate-free RPMI supplemented with 10% dialyzed fetal bovine serum, 1% penicillin/streptomycin, 2 mM L-glutamine, and 25 nM leucovorin (final volume 200 µL) over a 96 h incubation period at 37° C. with 5% CO2. […] To quantify viable cells, the media was removed and plates were washed once with 100 µL Dulbecco’s Phosphate-Buffered Saline (PBS), after which 100 µL PBS and 20 µL Cell Titer-blue (Promega) were added. Relative cell numbers were proportional to the fluorescence measured with a fluorescence plate reader (590 nm emission, 560 nm excitation). […]

On to `Nc1nc2ccn(CCCc3ccc(C(=O)N[C@@H](CCC(=O)O)C(=O)O)cc3)c2c(=O)[nH]1` [AGF291], for which the IC50 was above 1 µM.
